ChEMBL document CHEMBL5385935, “Structural Characterization and Rat Aortic Vascular Reactivity of Bradykinin-Potentiating Peptides (BPPs) from the Snake Venom of Bothrops moojeni from Delta do Parnaíba Region, Brazil” (2024)
Non-standard residues stand in square brackets, D forms with d. Residues, ends and D or L forms follow the SMILES beside them. pGlu = O=C1CC[C@@H](C(=O)O)N1

Columns and labels:
Thoracic aorta [1] = assay: Vasorelaxant activity in Wistar rat endothelium-functional thoracic aorta assessed as reduction in phenylephrine-induced isometric contraction; type: tissue-based
Thoracic aorta [2] = assay: Vasorelaxant activity in Wistar rat endothelium-functional thoracic aorta assessed as reduction in phenylephrine-induced isometric contraction by measuring maximal efficacy relative to control

Question: Which results are given for `CC(C)[C@H](NC(=O)[C@H](CCCCN)NC(=O)[C@@H]1CCCN1C(=O)CNC(=O)[C@@H]1CCCN1C(=O)[C@H](Cc1c[nH]c2ccccc12)NC(=O)[C@H](CCCCN)NC(=O)[C@@H]1CCC(=O)N1)C(=O)N1CCC[C@H]1C(=O)N1CCC[C@H]1C(=O)O` ([pGlu]KWPGPKVPP-OH)?
Answer: Activity (Thoracic aorta [1]): Dose-Dependent Effect; Emax (Thoracic aorta [2]): 37.5%

Question: For `CC[C@H](C)[C@H](NC(=O)[C@H](CCC(=O)O)NC(=O)[C@@H]1CCCN1C(=O)CNC(=O)[C@@H]1CCCN1C(=O)[C@H](CCCNC(=N)N)NC(=O)[C@@H]1CCCN1C(=O)[C@H](Cc1c[nH]c2ccccc12)NC(=O)CNC(=O)CNC(=O)[C@@H]1CCC(=O)N1)C(=O)N1CCC[C@H]1C(=O)N1CCC[C@H]1C(=O)O` ([pGlu]GGWPRPGPEIPP-OH), which Activity (Thoracic aorta [1]) is on record?
Answer: Its Activity is “Dose-Dependent Effect”.

Question: What about the Emax (Thoracic aorta [2]) of the same compound?
Answer: Its Emax is 18.3%.

Question: What does the source list for `CC[C@H](C)[C@H](NC(=O)[C@H](CCC(=O)O)NC(=O)[C@@H]1CCCN1C(=O)CNC(=O)[C@@H]1CCCN1C(=O)[C@H](CCCNC(=N)N)NC(=O)[C@@H]1CCCN1C(=O)[C@H](Cc1c[nH]c2ccccc12)NC(=O)[C@H](CCCCN)NC(=O)[C@@H]1CCC(=O)N1)C(=O)N1CCC[C@H]1C(=O)N1CCC[C@H]1C(=O)O` ([pGlu]KWPRPGPEIPP-OH)?
Answer: Activity (Thoracic aorta [1]): Dose-Dependent Effect; Emax (Thoracic aorta [2]): 32.8%
